Holding throughout (assay type): cell-based
The target of experiment [1] is DYRK1A (Homo sapiens (Human), UniProt Q13627). Description: DYRK1A activity Tau assay: pSer396 Tau in SH-SY5Y cells by ELISA / western blot. The conditions noted are these: overnight (16-18 h) exposure.
For experiment [2], the system named is primary human mesenchymal stem cells (hMSCs). Description: Chondrogenesis assay in primary human mesenchymal stem cells, nodule count vs TGF-β3 positive control. The conditions noted are these: 6 days; for Conc (nM) of Max. activity: 6-point dose-response 2700 nM to 10 nM, dose at which maximum chondrogenesis activity was reached; for Conc (nM) of 100% TGF-β3 activity: concentration required to induce chondrogenesis equivalent to TGF-β3 (10 ng/mL); for Max. Activity as % TGF-β3 activity: relative to TGF-β3 (10 ng/mL) positive control. The source says:
The above synthesized compounds were screened using primary human mesenchymal stem cells (hMSCs) to determine their ability to induce chondrogenesis (process by which cartilage is developed).
Human Mesenchymal Stem Cell Culture:
Primary human mesenchymal stem cells (hMSCs) were purchased from Lonza (Walkersville, Md.) and expanded in Mesenchymal Stem Cell Growth Media (Lonza). Cells between passage 3 and 6 were used for the experiments.
Number of nodules in each well was normalized to the average of 3 DMSO treated wells on the same plate using Excel (Microsoft Inc.). The normalized averages (fold change over DMSO) of 3 replicate wells for each compound concentration were calculated. Due to solubility limitations of some of the compounds, curve fitting was incomplete leading to inaccurate EC50 determinations.
Using TGF-β3 as a positive control, the concentration of test compounds required to induce equivalent levels of chondrogenesis is reported. In addition, the maximum activity of each compound and the respective dose that each compound reached maximum chondrogenesis activity is reported.

Experiment [3] deals with Wnt activity (Wnt-responsive SP5 promoter luciferase reporter in SW480 cells). Description: Wnt activity reporter assay: SW480 cells with SP5 promoter-driven firefly luciferase. The conditions noted are these: Homo sapiens, 24 h after compound addition, read-out: Wnt inhibition. The essentials: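 SW480 cells (APC-mutant colon line) stably carrying a lentiviral SP5-promoter (eight TCF/LEF sites) firefly luciferase reporter were plated at ~10,000 cells/well. Luminescence was normalized to DMSO-only cells and used for IC50.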
In general terms: Reporter assays use an easily measured gene product as a stand-in for the process of interest.

The subject of experiment [4] is primary human fibroblasts derived from IPF patients (LL29 cells). Description: Inhibition of the fibrotic process: αSMA staining in TGF-β1 treated LL29 fibroblasts. The conditions noted are these: Fibroblast, 72 h, TGF-β1 10 ng/ml, 3 days, read-out: Inhibition of fibrosis IC50.
Description: The above synthesized compounds were screened using primary human fibroblasts (derived from IPF patients) treated with TGF-β1 to determine their ability to inhibit the fibrotic process.
Each compound was dissolved in DMSO as a 10 mM stock and used to prepare compound source plates. […] LL29 cells were plated at 1,000 cells/well in 50 μl/well serum free F12 medium. […] Wells untreated with TGF-β1 were used as control for normalization and calculating IC50 values. Cells were incubated at 37° C. and 5% CO2 for 3 days. Cells were fixed using 4% formaldehyde (Electron Microscopy Sciences), washed 3 times with PBS followed by blocking and permeabilization using 3% Bovine Serum Albumin (BSA; Sigma) and 0.3% Triton X-100 (Sigma) in PBS. […] The IC50 values are reported.

`O=C(Nc1cccnc1)c1n[nH]c2cc(F)c(-c3cncc(CN4CCCCC4)c3)cc12` [Compound 1153, 6-Fluoro-5-(5-(piperidin-1-ylmethyl)pyridin-3-yl)-N-(pyridin-3-yl)-1H-indazole-3-carboxamide]: the EC50 (as a rule, the concentration at which the effect is half-maximal) in experiment [1] stood at 1 nM. For the same compound, in experiment [2], the “Conc (nM) of Max. activity” value is 2700 nM, the “Conc (nM) of 100% TGF-β3 activity” value worked out at 900 nM and the “Max. Activity as % TGF-β3 activity” value worked out at 146%.

In experiment [1], `O=C(Nc1cccnc1)c1n[nH]c2cc(F)c(-c3cccnc3)cc12` [Compound 99, 6-Fluoro-N,5-di(pyridin-3-yl)-1H-indazole-3-carboxamide] yielded a 50% effective concentration (EC50) of 878 nM. For the same compound, in experiment [2], the “Conc (nM) of Max. activity” value came to 2700 nM and the “Max. Activity as % TGF-β3 activity” value amounted to 64%.

As for `CN1CCN(c2ccc(NC(=O)c3n[nH]c4ccc(-c5cncc(NC(=O)c6cc(F)ccc6F)c5)cc34)cn2)CC1` [Compound 48, 5-(5-(2,5-Difluorobenzamido)pyridin-3-yl)-N-(6-(4-methylpiperazin-1-yl)pyridin-3-yl)-1H-indazole-3-carboxamide], the IC50 in experiment [3] was 31 nM. In experiment [1], this compound had a 50% effective concentration (EC50) of 2 nM. Moreover, in experiment [2], the “Conc (nM) of Max. activity” value is recorded as 2700 nM, the “Conc (nM) of 100% TGF-β3 activity” value was 2700 nM and the “Max. Activity as % TGF-β3 activity” value worked out at 237%. The IC50 in experiment [4] was 67 nM.

`O=C(Nc1ccnc(C(F)(F)F)c1)c1n[nH]c2ccc(-c3cccnc3)cc12` [Compound 45, 5-(Pyridin-3-yl)-N-(2-(trifluoromethyl)pyridin-4-yl)-1H-indazole-3-carboxamide]: the EC50 in experiment [1] was 38 nM. Also, in experiment [2], the “Conc (nM) of Max. activity” value was 900 nM, the “Conc (nM) of 100% TGF-β3 activity” value turned out to be 900 nM and the “Max. Activity as % TGF-β3 activity” value worked out at 114%.

Compound `CC(C)N1CCC(NC(=O)c2n[nH]c3ccc(-c4cccnc4)cc23)CC1` [Compound 90, N-(1-Isopropylpiperidin-4-yl)-5-(pyridin-3-yl)-1H-indazole-3-carboxamide] returned an EC50 in experiment [1] of 15 nM. In experiment [2], the “Conc (nM) of Max. activity” value was 2700 nM, the “Conc (nM) of 100% TGF-β3 activity” value is listed as 2700 nM and the “Max. Activity as % TGF-β3 activity” value amounted to 169%.

For the compound `O=C(Nc1cccnc1)c1n[nH]c2ccc(-c3cncc(CN4CC5CC(C4)O5)c3)cc12` [Compound 84, 5-(5-((6-Oxa-3-azabicyclo[3.1.1]heptan-3-yl)methyl)pyridin-3-yl)-N-(pyridin-3-yl)-1H-indazole-3-carboxamide], in experiment [3], the IC50 was found to be 67 nM. In addition, in experiment [2], the “Conc (nM) of Max. activity” value came to 900 nM, the “Conc (nM) of 100% TGF-β3 activity” value is given as 900 nM and the “Max. Activity as % TGF-β3 activity” value came to 121%. In experiment [4], the IC50 came out at 132 nM.

`Cc1ncc(NC(=O)c2n[nH]c3ccc(-c4cccnc4)cc23)cn1` [Compound 97, N-(2-Methylpyrimidin-5-yl)-5-(pyridin-3-yl)-1H-indazole-3-carboxamide] registered an EC50 in experiment [1] of 556 nM. In experiment [2], the “Conc (nM) of Max. activity” value is listed as 2700 nM, the “Conc (nM) of 100% TGF-β3 activity” value came to 2700 nM and the “Max. Activity as % TGF-β3 activity” value was found to be 98%.

Compound `CC(C)NC(=O)c1n[nH]c2ccc(-c3cncc(CN4CCCC4)c3)cc12` [Compound 129, N-Isopropyl-5-(5-(pyrrolidin-1-ylmethyl)pyridin-3-yl)-1H-indazole-3-carboxamide] displayed an EC50 in experiment [1] of 42 nM. Further, in experiment [2], the “Conc (nM) of Max. activity” value worked out at 2700 nM, the “Conc (nM) of 100% TGF-β3 activity” value stood at 2700 nM and the “Max. Activity as % TGF-β3 activity” value worked out at 108%.

Regarding `O=C(Nc1cccc2cccnc12)c1n[nH]c2ccc(-c3cccnc3)cc12` [Compound 43, 5-(Pyridin-3-yl)-N-(quinolin-8-yl)-1H-indazole-3-carboxamide], in experiment [1], the EC50 turned out to be 2200 nM. Also, in experiment [2], the “Conc (nM) of Max. activity” value turned out to be 100 nM and the “Max. Activity as % TGF-β3 activity” value is given as 38%.

`O=C(Nc1ccccn1)c1n[nH]c2cc(F)c(-c3cncc(CN4CCCCC4)c3)cc12` [Compound 1343, 6-Fluoro-5-(5-(piperidin-1-ylmethyl)pyridin-3-yl)-N-(pyridin-2-yl)-1H-indazole-3-carboxamide] registered a concentration giving a half-maximal response (EC50) in experiment [1] of 2 nM. Besides, in experiment [2], the “Conc (nM) of Max. activity” value is recorded as 2700 nM and the “Max. Activity as % TGF-β3 activity” value amounted to 67%.

As to `O=C(Nc1ccnc(N2CCCCC2)c1)c1n[nH]c2ccc(-c3cccnc3)cc12` [Compound 103, N-(2-(Piperidin-1-yl)pyridin-4-yl)-5-(pyridin-3-yl)-1H-indazole-3-carboxamide], a half-maximal response in experiment [1] (EC50) required 5 nM. In addition, in experiment [2], the “Conc (nM) of Max. activity” value is on record as 2700 nM, the “Conc (nM) of 100% TGF-β3 activity” value was found to be 2700 nM and the “Max. Activity as % TGF-β3 activity” value amounted to 130%.

For the compound `Cc1ncc(NC(=O)c2n[nH]c3ccc(-c4cncc(CN5CCCCC5)c4)cc23)cn1` [Compound 98, N-(2-Methylpyrimidin-5-yl)-5-(5-(piperidin-1-ylmethyl)pyridin-3-yl)-1H-indazole-3-carboxamide], the midpoint of the response in experiment [1], the EC50, lay at 1 nM. For the same compound, in experiment [2], the “Conc (nM) of Max. activity” value was found to be 2700 nM, the “Conc (nM) of 100% TGF-β3 activity” value worked out at 2700 nM and the “Max. Activity as % TGF-β3 activity” value turned out to be 161%.

Consider `CC(C)N1CCC(NC(=O)c2n[nH]c3ccc(-c4cncc(Cl)c4)cc23)CC1` [Compound 1305, 5-(5-Chloropyridin-3-yl)-N-(1-isopropylpiperidin-4-yl)-1H-indazole-3-carboxamide], for which, in experiment [1], the EC50 is 124 nM. In experiment [2], the “Conc (nM) of Max. activity” value came to 2700 nM, the “Conc (nM) of 100% TGF-β3 activity” value worked out at 2700 nM and the “Max. Activity as % TGF-β3 activity” value came to 121%.

For the compound `O=C(NC1CC1)c1n[nH]c2ccc(-c3cncnc3)cc12` [Compound 1269, N-Cyclopropyl-5-(pyrimidin-5-yl)-1H-indazole-3-carboxamide], the response in experiment [1] was half-maximal at 76 nM (EC50). Also, in experiment [2], the “Conc (nM) of Max. activity” value is listed as 2700 nM and the “Max. Activity as % TGF-β3 activity” value worked out at 53%.

`COc1cc(NC(=O)c2n[nH]c3ccc(-c4cncc(CN5CCCCC5)c4)cc23)ccn1` [Compound 78, N-(2-Methoxypyridin-4-yl)-5-(5-(piperidin-1-ylmethyl)pyridin-3-yl)-1H-indazole-3-carboxamide] showed a concentration for a half-maximal effect (EC50) in experiment [1] of 2 nM. Moreover, in experiment [2], the “Conc (nM) of Max. activity” value came to 900 nM and the “Max. Activity as % TGF-β3 activity” value stood at 79%.

`CC(C)CN1CCC(NC(=O)c2n[nH]c3ccc(-c4cccnc4)cc23)CC1` [Compound 91, N-(1-Isobutylpiperidin-4-yl)-5-(pyridin-3-yl)-1H-indazole-3-carboxamide]: the response in experiment [1] was half-maximal at 11 nM (EC50). In experiment [2], the “Conc (nM) of Max. activity” value amounted to 2700 nM, the “Conc (nM) of 100% TGF-β3 activity” value worked out at 2700 nM and the “Max. Activity as % TGF-β3 activity” value was found to be 120%.

With `O=C(Nc1ccc(N2CC(F)(F)C2)nc1)c1n[nH]c2ccc(-c3cncc(CN4CCCCC4)c3)cc12` [Compound 71, N-(6-(3,3-Difluoroazetidin-1-yl)pyridin-3-yl)-5-(5-(piperidin-1-ylmethyl)pyridin-3-yl)-1H-indazole-3-carboxamide], the half-maximal effective concentration (EC50) in experiment [1] stood at 2 nM. In addition, in experiment [2], the “Conc (nM) of Max. activity” value is 900 nM, the “Conc (nM) of 100% TGF-β3 activity” value is reported as 900 nM and the “Max. Activity as % TGF-β3 activity” value is 110%.

In turn, `O=C(NC1CCCCC1)c1n[nH]c2ccc(-c3cncc(N4CCCC4)c3)cc12` [Compound 200, N-Cyclohexyl-5-(5-(pyrrolidin-1-yl)pyridin-3-yl)-1H-indazole-3-carboxamide] had an EC50 in experiment [1] of 58 nM. Besides, in experiment [2], the “Conc (nM) of Max. activity” value is listed as 2700 nM, the “Conc (nM) of 100% TGF-β3 activity” value was determined as 2700 nM and the “Max. Activity as % TGF-β3 activity” value came out at 138%.

Consider `O=C(Nc1cnccc1NC(=O)C1CC1)c1n[nH]c2ccc(-c3cncc(CN4CCCCC4)c3)cc12` [Compound 74, N-(4-(Cyclopropanecarboxamido)pyridin-3-yl)-5-(5-(piperidin-1-ylmethyl)pyridin-3-yl)-1H-indazole-3-carboxamide], for which the IC50 in experiment [3] was found to be 120 nM; in experiment [4], 2740 nM. The “Conc (nM) of Max. activity” value in experiment [2] was 10 nM. Moreover, in experiment [2], the “Max. Activity as % TGF-β3 activity” value is recorded as 31%.

In experiment [1], `C#CCN1CCC(NC(=O)c2n[nH]c3ccc(-c4cccc(F)c4F)cc23)CC1` [Compound 367, 5-(2,3-Difluorophenyl)-N-(1-(prop-2-yn-1-yl)piperidin-4-yl)-1H-indazole-3-carboxamide] showed an EC50 of 35 nM. In addition, in experiment [2], the “Conc (nM) of Max. activity” value is given as 2700 nM and the “Max. Activity as % TGF-β3 activity” value amounted to 65%.

`CN1CC(NC(=O)c2n[nH]c3ccc(-c4cccc(F)c4F)cc23)C1` [Compound 1272, 5-(2,3-Difluorophenyl)-N-(1-methylazetidin-3-yl)-1H-indazole-3-carboxamide]: the IC50 in experiment [3] is 2200 nM. For the same compound, in experiment [1], the concentration giving a half-maximal response (EC50) was 56 nM.

The record behind these values is patent publication US10669240B2, “5-substituted indazole-3-carboxamides and preparation and use thereof” (Samumed, LLC, priority 2014, dated 2020).
